{"source": "paper PMC10762068", "about": "“Selective blockade of Cav1.2 (α1C) versus Cav1.3 (α1D) L-type calcium channels by the black mamba toxin calciseptine” (Nature Communications, 2024)", "key": {"N-type Ca^2+ channel": {"tested_on": "N-type Ca^2+ channel", "conditions": "cited from earlier work", "text": "(§1) Animal venoms constitute an immense reservoir for identification of new toxins and toxin-derived tools for modulating the physiological function of ion channels. In particular, toxins showing three-fingers molecular scaffold class include several cardiotoxic peptides that abound in snake venoms. Three fingers toxin peptides potently block a variety of proteins including nicotinic receptors, acetylcholinesterase, acid-sensitive ion channels (ASIC)[14], as well as cytotoxins that disrupt the lipid membrane. More than 30 years ago, M. Lazdunski ‘s group purified a 60-amino acid three- ..."}, "T-type Ca^2+ channel": {"tested_on": "T-type Ca^2+ channel", "conditions": "cited from earlier work", "text": "as §1"}, "[1]": {"tested_on": "voltage sensitive K^+ channels", "conditions": "cardiac ventricular cells, NlE115 neuroblastoma cells, RINmSF and HIT insulinomas, chicken dorsal root ganglia; cited from earlier work", "text": "as §1"}, "cardiac contractions": {"tested_on": "cardiac contractions", "conditions": "cited from earlier work", "text": "as §1"}, "[2]": {"tested_on": "portal vein, thoracic aorta and uterine smooth muscle", "conditions": "cited from earlier work", "text": "as §1"}, "[3]": {"tested_on": "skeletal muscle (Cav1.1) L-type Ca^2+ channel", "conditions": "cited from earlier work", "text": "as §1"}, "[4]": {"tested_on": "voltage sensitive Na^+ channels", "conditions": "cardiac ventricular cells, NlE115 neuroblastoma cells, RINmSF and HIT insulinomas, chicken dorsal root ganglia; cited from earlier work", "text": "as §1"}, "[5]": {"tested_on": "SAN myocytes from Wild-Type mice", "assay": "Spontaneous action potentials, perforated patch-clamp, SAN pacemaker myocytes", "type": "cell-based, mouse", "conditions": "for action potential duration APD30: 30% repolarization; for action potential duration APD30 / action potential duration APD50 / action potential duration APD70 / action potential duration APD90 / slope of linear part of diastolic depolarization (SLDD) / slope of exponential part of diastolic depolarization (SEDD) / action potential amplitude (APA) / action potential rate: mean ± SEM; for action potential duration APD50: 50% repolarization; for action potential duration APD70: 70% repolarization; for action potential duration APD90: 90% repolarization", "procedure": "Hearts from Wild-Type and Cav1.3^−/− mice were removed under general anesthesia consisting of 0.01 mg/g xylazine (2% Rompun; Bayer AG) and 0.1 mg/g ketamine (Imalgène;Merial) and immersed in a pre-warmed (36 °C) Tyrode solution containing (mM): 140 NaCl, 5.4 KCl, 1 MgCl2, 1.8 CaCl2, 5.5 D-glucose, and 5 Hepes (adjusted to pH 7.4 with NaOH). […] SAN tissue was excised and transferred into a low-Ca^2+ solution containing (mM): 140 NaCl, 5.4 KCl, 0.5 MgCl2, 0.2 CaCl2, 1.2 KH2PO4, 50 taurine, 5.5 D-glucose, 1 mg/mL BSA, and 5 Hepes–NaOH (adjusted to pH 6.9 with NaOH) for 5 min. Then, enzymatic digestion was carried out for 20-25 min at 36 °C in the low-Ca^2+ solution containing LiberaseTH Research Grade (0.15 mg/mL; Roche, Mannheim, Germany) and elastase (0.5 mg/mL; Worthington, Lakewood, NJ, USA). Digestion was stopped by washing the SAN in a “Kraftbrühe” (KB) medium containing (mM) 100 K-glutamate, 10 K-aspartate, 25 KCl, 10 KH2PO4, 2 MgSO4, 20 taurine, 5 creatine, 0.5 EGTA, 20 D-glucose, 5 Hepes, and 1 mg/mL BSA (adjusted to pH 7.2 with KOH). Single SAN cells were then dissociated from the SAN tissue by manual agitation using a flame-forged Pasteur’s pipette. To recover the automaticity of the SAN cells, Ca^2+ was gradually reintroduced in the cell’s storage solution to a final concentration of 1.8 mM. SAN cells were then left to rest for 1 h before recordings.\nFor patch-clamp recordings of SAN myocytes, cells were harvested in custom-made chambers with glass bottoms for cell attachment. Cells were then super-fused with Tyrode’s solution warmed at 36 °C before recording. Action potentials and ionic currents were recorded using an Axon multi-clamp patch-clamp 700B amplifier. Voltage-gated L-type Ca^2+ currents (ICaL) were recorded using standard whole cell patch-clamp configuration. For recording ICaL, we used an extracellular recording solution contained (mM): 135 tetraethylammonium chloride (TEA-Cl), 10 4-aminopyridine (4-AP), 1 MgCl2, 0.03 tetrodotoxin (TTX), 1 g/L Glucose, 2 CaCl2, 10 Hepes, (adjusted to pH = 7.2 with TEAOH). […] Pacemaker activity was recorded by the perforated patch-clamp technique using escin (40 µg/ml). For recording cell automaticity glass pipettes were filled with the intracellular solution contained (mM): 80 K-Aspartate, 50 KCl, 1 MgCl2, 5 HEPES, 2 CaCl2, 5 EGTA, 3 ATP-Na+ salt; pH was adjusted to 7.2 with KOH. Escin was dissolved in sterile H2O and added to the intracellular solution right before each experiment.\nWe used an extracellular recording solution (Tyrode’s based) contained (mM): 140 NaCl, 5.4 KCl, 1 MgCl2, 1.8 CaCl2, 5 HEPES, 5.5 D-Glucose; pH was set to 7.4 with NaOH. AP parameters have been calculated as reported in Baudot et al.[10]. Data were analyzed using pCLAMP9 (Molecular Devices) and GraphPad Prism (GraphPad) software.\nIn all experiments of cellular electrophysiology, we employed synthetized analog of Cas, commercially available at Latoxan (ID: L8109). The native peptide was purified from the venom of Dendroaspis polylepis purchased from Latoxan, as previoulsly described. The pure peptide was obtained after gel filtration, cation exchange and C18 reversed phase chromatography. Its measured molecular mass (7036.26 Da average) was in accordance with the mass calculated from sequence data (7036.22 Da)."}, "[6]": {"tested_on": "DHP binding site, brain synaptosomes", "conditions": "at a rather high concentration; cited from earlier work", "text": "DHPs are prototypical organic blockers of L-type calcium channels widely used in therapeutical applications."}, "[7]": {"conditions": "Cas 300 nM alone (n=9/N=4) or + Nife 3 µM (n=8/N=4)"}, "[8]": {"conditions": "Cas 1 µM alone (n=12/N=3) or + Nife 3 µM (n=9/N=3)"}}, "note": "Positions of bridges follow the written chain, without caps; N, C: chain ends. No end group written: not given here."}
{"sequence": "RICYIHKASLPRATKTCVENTCYKMFIRTQREYISERGCGCPTAMWPYQTECCKGDRCNK (disulfide 3-22, 17-39, 41-52, 53-58 (inferred)) [Cas, calciseptine]", "values": [{"measurement": "effect on N-type Ca2+ channel", "setting": "N-type Ca^2+ channel", "result": "without affecting"}, {"measurement": "effect on T-type Ca2+ channel", "setting": "T-type Ca^2+ channel", "result": "without affecting"}, {"measurement": "effect on voltage sensitive K+ channels", "setting": "[1]", "result": "does not affect"}, {"measurement": "effect on cardiac contractions", "setting": "cardiac contractions", "result": "completely eliminate cardiac contractions"}, {"measurement": "effect on smooth muscle contraction", "setting": "[2]", "result": "abolish all contraction"}, {"measurement": "effect on skeletal muscle (Cav1.1) L-type Ca2+ channel", "setting": "[3]", "result": "without affecting"}, {"measurement": "effect on voltage sensitive Na+ channels", "setting": "[4]", "result": "does not affect"}, {"measurement": "effect on AP duration", "setting": "[5]; Cas 300 nM", "result": "did not affect AP duration"}, {"measurement": "action potential duration APD30", "setting": "[5]; [7]", "result": "28 ± 2", "unit": "ms"}, {"measurement": "action potential duration APD50", "setting": "[5]; [7]", "result": "46 ± 4", "unit": "ms"}, {"measurement": "action potential duration APD70", "setting": "[5]; [7]", "result": "66 ± 6", "unit": "ms"}, {"measurement": "action potential duration APD90", "setting": "[5]; [7]", "result": "98 ± 8", "unit": "ms"}, {"measurement": "slope of linear part of diastolic depolarization (SLDD)", "setting": "[5]; Cas 300 nM alone (n=9/N=4) or + Nife 3 µM (n=8/N=4), Ctrl 0.06 ± 0.01", "result": "^$0.05 ± 0.01^p=0.0128 mV/ms"}, {"measurement": "slope of exponential part of diastolic depolarization (SEDD)", "setting": "[5]; Cas 300 nM alone (n=9/N=4) or + Nife 3 µM (n=8/N=4), Ctrl 0.51 ± 0.09", "result": "^$0.40 ± 0.04^p=0.0078 mV/ms"}, {"measurement": "action potential amplitude (APA)", "setting": "[5]; Cas 300 nM alone (n=9/N=4) or + Nife 3 µM (n=8/N=4), Ctrl 83 ± 2", "result": "75 ± 3", "unit": "mV"}, {"measurement": "action potential rate", "setting": "[5]; Cas 300 nM alone (n=9/N=4) or + Nife 3 µM (n=8/N=4), Ctrl 200 ± 21", "result": "^$194 ± 19^p=0.0004 bpm"}, {"measurement": "effect on AP amplitude", "setting": "[5]; Cas 300 nM and 1 µM", "result": "reduced AP amplitude"}, {"measurement": "effect on AP firing rate", "setting": "[5]; Cas 300 nM and 1 µM", "result": "did not affect AP firing rate"}, {"measurement": "effect on maximum diastolic potential, threshold potential and upstroke velocity", "setting": "[5]; Cas 300 nM or 1 µM", "result": "did not observe statistically significant differences"}, {"measurement": "effect on slopes of linear and exponential diastolic depolarization", "setting": "[5]; Cas 300 nM or 1 µM", "result": "did not change"}, {"measurement": "effect on AP duration at 30% and 50% of repolarization", "setting": "[5]; Cas 1 µM", "result": "had statistically significant effect"}, {"measurement": "action potential duration APD30", "setting": "[5]; [8]", "result": "25 ± 2", "unit": "ms"}, {"measurement": "action potential duration APD50", "setting": "[5]; [8]", "result": "43 ± 3", "unit": "ms"}, {"measurement": "action potential duration APD70", "setting": "[5]; [8]", "result": "61 ± 3", "unit": "ms"}, {"measurement": "action potential duration APD90", "setting": "[5]; [8]", "result": "87 ± 4", "unit": "ms"}, {"measurement": "slope of linear part of diastolic depolarization (SLDD)", "setting": "[5]; Cas 1 µM alone (n=12/N=3) or + Nife 3 µM (n=10/N=3), Ctrl 0.07 ± 0.01", "result": "^$0.06 ± 0.01^p=0.0187 mV/ms"}, {"measurement": "slope of exponential part of diastolic depolarization (SEDD)", "setting": "[5]; Cas 1 µM alone (n=12/N=3) or + Nife 3 µM (n=10/N=3), Ctrl 0.48 ± 0.06", "result": "^$0.50 ± 0.06^p=0.0002 mV/ms"}, {"measurement": "action potential amplitude (APA)", "setting": "[5]; Cas 1 µM alone (n=12/N=3) or + Nife 3 µM (n=10/N=3), Ctrl 91 ± 2", "result": "85 ± 3", "unit": "mV"}, {"measurement": "action potential rate", "setting": "[5]; Cas 1 µM alone (n=12/N=3) or + Nife 3 µM (n=10/N=3), Ctrl 218 ± 15", "result": "^$213 ± 15^p<0.0001 bpm"}, {"measurement": "inhibition of DHP binding", "setting": "[6]", "result": "could inhibit binding of DHPs"}]}
